IC50 data for 29 compounds are collected here from patent US9056874B2, “Complement pathway modulators and uses thereof” (NOVARTIS AG, priority 2012, dated 2015).

The structures appear in SMILES notation.

In the experiment the target is factor B (Homo sapiens, UniProt P00751). Briefly: factor B inhibition assay of Biological Example 1. Type of experiment: biochemical. Details: CVF-Bb complex prepared from purified cobra venom factor (1 μM), recombinant human complement factor B; made in house; host or cells: drosophila cells (factor B); E. coli (factor D used to form the complex). As to conditions: IC50 (nM), assay of Biological Example 1 (Table 1).
Sequence of factor B (P00751 260-764 limits assumed): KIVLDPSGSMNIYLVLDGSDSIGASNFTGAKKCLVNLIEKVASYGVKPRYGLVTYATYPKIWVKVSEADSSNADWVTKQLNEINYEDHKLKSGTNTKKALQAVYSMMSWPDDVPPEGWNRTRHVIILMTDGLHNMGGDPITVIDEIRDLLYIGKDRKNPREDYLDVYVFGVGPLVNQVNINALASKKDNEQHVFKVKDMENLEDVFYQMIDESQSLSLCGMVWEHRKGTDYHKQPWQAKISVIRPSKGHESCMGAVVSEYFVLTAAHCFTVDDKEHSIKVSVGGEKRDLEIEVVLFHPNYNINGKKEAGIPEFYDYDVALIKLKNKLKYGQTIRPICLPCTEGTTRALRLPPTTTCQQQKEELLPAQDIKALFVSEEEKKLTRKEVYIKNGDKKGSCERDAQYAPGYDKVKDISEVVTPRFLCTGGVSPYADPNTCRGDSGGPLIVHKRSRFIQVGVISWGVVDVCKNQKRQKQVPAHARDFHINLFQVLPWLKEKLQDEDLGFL
Sequence of factor B (Q91132 23-649 partner limits assumed): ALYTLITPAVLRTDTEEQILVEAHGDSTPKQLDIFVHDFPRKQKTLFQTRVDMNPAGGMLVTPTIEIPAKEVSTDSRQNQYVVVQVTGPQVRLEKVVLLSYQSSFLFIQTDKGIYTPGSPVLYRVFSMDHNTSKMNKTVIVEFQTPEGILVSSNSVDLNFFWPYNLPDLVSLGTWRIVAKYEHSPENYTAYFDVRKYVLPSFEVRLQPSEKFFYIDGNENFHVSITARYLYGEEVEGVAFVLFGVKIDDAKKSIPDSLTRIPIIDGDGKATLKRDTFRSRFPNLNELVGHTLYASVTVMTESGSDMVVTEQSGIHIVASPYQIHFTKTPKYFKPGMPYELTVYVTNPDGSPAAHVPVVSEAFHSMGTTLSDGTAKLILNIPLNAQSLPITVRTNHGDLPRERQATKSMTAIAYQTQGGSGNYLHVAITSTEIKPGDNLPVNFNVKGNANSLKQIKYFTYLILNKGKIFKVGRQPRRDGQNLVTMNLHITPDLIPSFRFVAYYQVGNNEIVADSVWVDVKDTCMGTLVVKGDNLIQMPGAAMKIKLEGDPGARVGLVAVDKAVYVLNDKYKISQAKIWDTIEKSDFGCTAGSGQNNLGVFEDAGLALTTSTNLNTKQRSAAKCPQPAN
Sequence of factor B (Q91132 733-984 partner limits assumed): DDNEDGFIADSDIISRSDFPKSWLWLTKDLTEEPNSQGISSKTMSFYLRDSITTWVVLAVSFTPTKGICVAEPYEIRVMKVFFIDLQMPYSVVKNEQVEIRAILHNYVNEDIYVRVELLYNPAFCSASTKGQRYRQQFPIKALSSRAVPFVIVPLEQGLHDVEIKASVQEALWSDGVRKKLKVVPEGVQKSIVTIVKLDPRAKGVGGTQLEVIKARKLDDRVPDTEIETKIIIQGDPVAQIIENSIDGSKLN
Sequence of factor B (Q91132 1264-1642 partner limits assumed): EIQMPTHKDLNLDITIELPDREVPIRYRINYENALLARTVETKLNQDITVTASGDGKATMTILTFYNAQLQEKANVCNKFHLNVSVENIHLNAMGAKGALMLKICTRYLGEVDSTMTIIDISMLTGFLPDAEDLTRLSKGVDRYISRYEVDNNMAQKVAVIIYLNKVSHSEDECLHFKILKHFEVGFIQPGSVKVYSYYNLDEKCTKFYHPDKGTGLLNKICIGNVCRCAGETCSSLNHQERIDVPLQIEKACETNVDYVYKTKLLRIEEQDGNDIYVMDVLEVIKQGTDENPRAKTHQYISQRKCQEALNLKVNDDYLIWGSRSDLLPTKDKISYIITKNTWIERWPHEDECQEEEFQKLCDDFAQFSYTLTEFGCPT

Take `Cc1cc(C)c2[nH]ccc2c1C(O)c1nc2c(C)c(C#N)ccc2[nH]1` (single isomer, unassigned; (-)) [67-G b) (−), (−)-2-((5,7-dimethyl-1H-indol-4-yl)(hydroxy)methyl)-4-methyl-1H-benzo[d]imidazole-5-carbonitrile]: the IC50 was 570 nM. In the case of `CCc1cc(C)c2[nH]ccc2c1C(OC)c1nc2cc(C#N)ccc2[nH]1` (single isomer, unassigned; (-)) [70-D b) (−), (−)-2-((5-ethyl-7-methyl-1H-indol-4-yl)(methoxy)methyl)-1H-benzo[d]imidazole-5-carbonitrile] it was 480 nM; in that of `COC(c1nc2cc(C#N)ccc2[nH]1)c1c(CC(C)C)cc(C)c2[nH]ccc12` (single isomer, unassigned; (-)) [71 b) (−), (−)-2-((5-isobutyl-7-methyl-1H-indol-4-yl)(methoxy)methyl)-1H-benzo[d]imidazole-5-carbonitrile], 4590 nM. The value for `Cc1cc(C)c2[nH]ccc2c1C(C)(O)c1nc2cc(C#N)ccc2[nH]1` (single isomer, unassigned; (-)) [76-B b) (−), (−)-2-(1-(5,7-Dimethyl-1H-indol-4-yl)-1-hydroxyethyl)-1H-benzo[d]imidazole-5-carbonitrile] was 190 nM; that for `CCc1cc(C)c2[nH]ccc2c1C(C)(O)c1nc2cc(C#N)ccc2[nH]1` (single isomer, unassigned; (-)) [77-C b) (−), (−)-2-(1-(5-ethyl-7-methyl-1H-indol-4-yl)-1-hydroxyethyl)-1H-benzo[d]imidazole-5-carbonitrile] was 20 nM; that for `Cc1cc(C(C)C)c(C(C)(O)c2nc3cc(C#N)ccc3[nH]2)c2cc[nH]c12` (single isomer, unassigned; (-)) [79-B b) (−), (−)-2-(1-hydroxy-1-(5-isopropyl-7-methyl-1H-indol-4-yl)ethyl)-1H-benzo[d]imidazole-5-carbonitrile] was 260 nM. With `Cc1cc(C2CC2)c(C(C)(O)c2nc3cc(C#N)ccc3[nH]2)c2cc[nH]c12` (single isomer, unassigned; (-)) [79-C b) (−), (−)-2-(1-(5-cyclopropyl-7-methyl-1H-indol-4-yl)-1-hydroxyethyl)-1H-benzo[d]imidazole-5-carbonitrile], the IC50 was determined as 6 nM. For the compound `Cc1cc(CC(C)C)c(C(C)(O)c2nc3cc(C#N)ccc3[nH]2)c2cc[nH]c12` (single isomer, unassigned; (-)) [79-D b) (−), (−)-2-(1-hydroxy-1-(5-isobutyl-7-methyl-1H-indol-4-yl)ethyl)-1H-benzo[d]imidazole-5-carbonitrile], the IC50 worked out at 310 nM. In the case of `Cc1cc(Cl)c(C(C)(O)c2nc3cc(C#N)ccc3[nH]2)c2cc[nH]c12` (single isomer, unassigned; (-)) [79-E b) (−), (−)-2-(1-(5-chloro-7-methyl-1H-indol-4-yl)-1-hydroxyethyl)-1H-benzo[d]imidazole-5-carbonitrile] it was 350 nM; in that of `CCc1cc(C)c2[nH]ccc2c1C(O)(c1nc2cc(C#N)ccc2[nH]1)C(F)(F)F` (single isomer, unassigned; (-)) [80-C b) (−), (−)-2-(1-(5-ethyl-7-methyl-1H-indol-4-yl)-2,2,2-trifluoro-1-hydroxyethyl)-1H-benzo[d]imidazole-5-carbonitrile], 10 nM; in that of `Cc1cc(C)c2[nH]ccc2c1C(O)(c1nc2cc(C#N)ccc2[nH]1)C(F)(F)F` (single isomer, unassigned; (-)) [80-D b) (−), (−)-2-(1-(5,7-dimethyl-1H-indol-4-yl)-2,2,2-trifluoro-1-hydroxyethyl)-1H-benzo[d]imidazole-5-carbonitrile], 70 nM.

As for `Cc1cc(C2CC2)c(C(O)(c2nc3cc(C#N)ccc3[nH]2)C(F)(F)F)c2cc[nH]c12` (single isomer, unassigned; (-)) [80-E b) (−), (−)-2-(1-(5-cyclopropyl-7-methyl-1H-indol-4-yl)-2,2,2-trifluoro-1-hydroxyethyl)-1H-benzo[d]imidazole-5-carbonitrile], the IC50 turned out to be 10 nM. The value for `Cc1cc(C(C)C)c(C(O)(c2nc3cc(C#N)ccc3[nH]2)C(F)(F)F)c2cc[nH]c12` (single isomer, unassigned; (-)) [80-F b) (−), (−)-2-(2,2,2-trifluoro-1-hydroxy-1-(5-isopropyl-7-methyl-1H-indol-4-yl)ethyl)-1H-benzo[d]imidazole-5-carbonitrile] was 20 nM; that for `COC(C)(c1nc2cc(C#N)ccc2[nH]1)c1c(C)cc(C)c2[nH]ccc12` (single isomer, unassigned; (-)) [84-B b) (−), (−)-2-(1-(5,7-dimethyl-1H-indol-4-yl)-1-methoxyethyl)-1H-benzo[d]imidazole-5-carbonitrile] was 50 nM. Take `CCc1cc(C)c2[nH]ccc2c1C(C)(OC)c1nc2cc(C#N)ccc2[nH]1` (single isomer, unassigned; (-)) [84-C b) (−), (−)-2-(1-(5-ethyl-7-methyl-1H-indol-4-yl)-1-methoxyethyl)-1H-benzo[d]imidazole-5-carbonitrile]: the IC50 is 10 nM. In the case of `CCc1cc(C)c2[nH]ccc2c1C(OC)(c1nc2cc(C#N)ccc2[nH]1)C(F)(F)F` (single isomer, unassigned; (-)) [84-D b) (−), (−)-2-(1-(5-ethyl-7-methyl-1H-indol-4-yl)-2,2,2-trifluoro-1-methoxyethyl)-1H-benzo[d]imidazole-5-carbonitrile], the IC50 turned out to be 8 nM. In the case of `COC(C)(c1nc2cc(C#N)ccc2[nH]1)c1c(CC(C)C)cc(C)c2[nH]ccc12` (single isomer, unassigned; (-)) [84-E b) (−), (−)-2-(1-(5-isobutyl-7-methyl-1H-indol-4-yl)-1-methoxyethyl)-1H-benzo[d]imidazole-5-carbonitrile] it was 260 nM. As for `Cc1cc(C)c2[nH]ccc2c1C(N)c1nc2ccc(C#N)cc2[nH]1` (single isomer, unassigned; (-)) [95-B b) (−), (−)-2-(amino(5,7-dimethyl-1H-indol-4-yl)methyl)benzo[d]imidazole-5-carbonitrile], the half-inhibitory concentration (IC50) stood at 480 nM. In the case of `CCc1cc(C)c2[nH]ccc2c1C(N)c1nc2cc(C#N)ccc2[nH]1` (single isomer, unassigned; (-)) [96-C b) (−), (−)-2-(amino(5-ethyl-7-methyl-1H-indol-4-yl)methyl)-1H-benzo[d]imidazole-5-carbonitrile] it was 70 nM.

Regarding `CCc1cc(C)c2[nH]ccc2c1C(C)(N)c1nc2cc(C#N)ccc2[nH]1` (single isomer, unassigned; (-)) [102-C b) (−), (−)-2-(1-amino-1-(5-ethyl-7-methyl-1H-indol-4-yl)ethyl)-1H-benzo[d]imidazole-5-carbonitrile], the half-inhibitory concentration (IC50) came out at 10 nM. The value for `Cc1cc(C2CC2)c(C(C)(N)c2nc3cc(C#N)ccc3[nH]2)c2cc[nH]c12` (single isomer, unassigned; (-)) [102-D b) (−), (−)-2-(1-amino-1-(5-cyclopropyl-7-methyl-1H-indol-4-yl)ethyl)-1H-benzo[d]imidazole-5-carbonitrile] was 8 nM; that for `Cc1cc(Br)c(C(N)(c2nc3cc(C#N)ccc3[nH]2)C(F)(F)F)c2cc[nH]c12` (single isomer, unassigned; (-)) [105-B b) (−), (−)-2-(1-amino-1-(5-bromo-7-methyl-1H-indol-4-yl)-2,2,2-trifluoroethyl)-1H-benzo[d]imidazole-5-carbonitrile] was 20 nM. The value for `CNC(c1nc2cc(C#N)ccc2[nH]1)(c1c(Br)cc(C)c2[nH]ccc12)C(F)(F)F` (single isomer, unassigned; (-)) [106 b) (−), (−)-2-(1-(5-bromo-7-methyl-1H-indol-4-yl)-2,2,2-trifluoro-1-(methylamino)ethyl)-1H-benzo[d]imidazole-5-carbonitrile] was 8 nM; that for `CCc1cc(C)c2[nH]ccc2c1C(NC)(c1nc2cc(C#N)ccc2[nH]1)C(F)(F)F` (single isomer, unassigned; (-)) [107-B b) (−), (−)-2-(1-(5-ethyl-7-methyl-1H-indol-4-yl)-2,2,2-trifluoro-1-(methylamino)ethyl)-1H-benzo[d]imidazole-5-carbonitrile] was 3 nM; that for `CCc1cc(C)c2[nH]ccc2c1C(N)(c1nc2cc(C#N)ccc2[nH]1)C(F)(F)F` (single isomer, unassigned; (-)) [107-C b) (−), (−)-2-(1-amino-1-(5-ethyl-7-methyl-1H-indol-4-yl)-2,2,2-trifluoroethyl)-1H-benzo[d]imidazole-5-carbonitrile] was 30 nM. The value for `Cc1cc(C2CC2)c(C(N)(c2nc3cc(C#N)ccc3[nH]2)C(F)(F)F)c2cc[nH]c12` (single isomer, unassigned; (-)) [107-D b) (−), (−)-2-(1-amino-1-(5-cyclopropyl-7-methyl-1H-indol-4-yl)-2,2,2-trifluoroethyl)-1H-benzo[d]imidazole-5-carbonitrile] was 8 nM.

As to `CNC(c1nc2cc(C#N)ccc2[nH]1)(c1c(C2CC2)cc(C)c2[nH]ccc12)C(F)(F)F` (single isomer, unassigned; (-)) [107-E b) (−), (−)-2-(1-(5-cyclopropyl-7-methyl-1H-indol-4-yl)-2,2,2-trifluoro-1-(methylamino)ethyl)-1H-benzo[d]imidazole-5-carbonitrile], the IC50 was 3 nM. In the case of `COc1cc(C)c2c(c1C(C)(OC)c1nc3cc(C#N)ccc3[nH]1)CCN2` (single isomer, unassigned; (-)) [124 b) (−), (−)-2-(1-methoxy-1-(5-methoxy-7-methylindolin-4-yl)ethyl)-1H-benzo[d]imidazole-5-carbonitrile] it was 11 nM; in that of `COc1cc(C)c2[nH]ccc2c1C(O)c1nc2cc(C#N)ccc2o1` (single isomer, unassigned; (-)) [125-B b) (−), (−)-2-(hydroxy(5-methoxy-7-methyl-1H-indol-4-yl)methyl)benzo[d]oxazole-5-carbonitrile], 3 nM.

The IC50 is the concentration at which inhibition is half-maximal.
